What was measured:
[1] = target: T1, Acetylcholine dose-response in isolated ileum from male Hartley guinea-pigs (Cavia porcellus, UniProt H0W1Z3); test: Anti-acetylcholinergic effect, isolated guinea-pig ileum (KB by Furchgott method); set-up: species or system guinea-pig (male Hartley); details: dissociation constant KB (M) of antagonist vs acetylcholine; test drug applied 30 minutes before; 28° C.; read-out: -Log KB (anti-acetylcholinergic effect) (converted)
T1 construct: The ileum was isolated from male Hartley guinea-pigs; from tissue; host or cells: isolated ileum of male Hartley guinea-pigs
T1 sequence (H0W1Z3 1-590): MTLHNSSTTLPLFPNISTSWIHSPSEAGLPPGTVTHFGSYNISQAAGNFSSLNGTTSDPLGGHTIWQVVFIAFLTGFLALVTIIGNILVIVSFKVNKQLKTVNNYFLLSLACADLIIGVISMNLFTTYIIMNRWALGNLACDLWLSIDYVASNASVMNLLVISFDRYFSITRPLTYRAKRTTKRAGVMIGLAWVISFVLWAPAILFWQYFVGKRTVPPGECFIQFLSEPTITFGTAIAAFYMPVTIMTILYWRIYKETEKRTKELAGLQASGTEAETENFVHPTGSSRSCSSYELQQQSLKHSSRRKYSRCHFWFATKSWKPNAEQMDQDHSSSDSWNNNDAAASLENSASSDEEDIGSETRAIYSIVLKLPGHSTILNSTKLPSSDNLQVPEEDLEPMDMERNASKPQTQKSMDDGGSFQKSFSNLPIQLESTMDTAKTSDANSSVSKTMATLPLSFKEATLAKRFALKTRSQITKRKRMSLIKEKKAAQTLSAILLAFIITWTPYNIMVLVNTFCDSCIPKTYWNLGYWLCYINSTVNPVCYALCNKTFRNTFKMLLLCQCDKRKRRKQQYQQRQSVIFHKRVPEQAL
Method: (§1) The ileum was isolated from male Hartley guinea-pigs (5 to 8 weeks of age). The preparation was suspended in a bath containing Locke-Ringer nutritional solution (NaCl: 154 mM, KCl: 5.6 mM, CaCl2.H2 O: 2.2 mM, MgCl2. 6H2 O: 2.1 mM, NaHCO3 : 5.9 mM, glucose: 2.8 mM) bubbled with 95% O2 +5% CO2 mixed gas at 28° C., and then 0.5 g weight was loaded and tention through isotonic transducer was recorded using a recorder. Acetylcholine was cumulatively applied 3 times at intervals of 40 minutes, and the dose-response curve of the third experiment, for which a test drug was applied 30 minutes before the experiment, was compared with the result of the second experiment as a reference. Dissociation constants KB (M) of antagonists were calculated according to the method of Furchgott. From the results shown in Table 3, it is apparent that the compounds of the present invention have almost no anti-acetylcholinergic activities.

[2] = target: T2, Histamine dose-response in isolated ileum from male Hartley guinea-pigs (Cavia porcellus, UniProt P31389); test: Anti-histaminic effect, isolated guinea-pig ileum (KB by Furchgott method); set-up: species or system guinea-pig (male Hartley); details: dissociation constant KB (M) of antagonist vs histamine; test drug applied 30 minutes before; 28° C.; read-out: -Log KB (anti-histaminic effect) (converted)
T2 construct: The ileum was isolated from male Hartley guinea-pigs; from tissue; host or cells: isolated ileum of male Hartley guinea-pigs
T2 sequence (P31389 whole entry): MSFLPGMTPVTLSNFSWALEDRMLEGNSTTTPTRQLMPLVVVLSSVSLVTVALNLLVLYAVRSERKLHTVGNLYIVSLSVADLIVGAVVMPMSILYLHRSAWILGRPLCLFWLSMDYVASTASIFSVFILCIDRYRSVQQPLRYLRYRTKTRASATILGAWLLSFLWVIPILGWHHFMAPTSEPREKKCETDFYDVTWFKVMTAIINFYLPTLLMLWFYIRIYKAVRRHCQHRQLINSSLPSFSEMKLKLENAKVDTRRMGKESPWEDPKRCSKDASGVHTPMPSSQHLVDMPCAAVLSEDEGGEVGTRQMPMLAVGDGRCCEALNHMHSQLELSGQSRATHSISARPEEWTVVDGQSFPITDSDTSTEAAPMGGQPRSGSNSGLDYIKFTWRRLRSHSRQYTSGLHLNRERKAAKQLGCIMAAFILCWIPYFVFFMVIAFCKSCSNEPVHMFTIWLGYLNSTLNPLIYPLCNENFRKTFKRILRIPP
Method: as §1, with “CaCl2 .2H2” for “CaCl2.H2”, “MgCl2.6H2” for “MgCl2. 6H2”, “Histamine” for “Acetylcholine”, “1,” for “3,”, “excellent anti-histaminic” for “almost no anti-acetylcholinergic”

[3] = system: PCA reaction in passively sensitized male Wistar rats; test: Anti-allergic effect (Inhibitory effect on PCA reaction); assay type: in vivo, rat (male Wistar); details: Rattus norvegicus, po, 1 h, 1 mg/kg orally, antigen challenge after one hour, read-out: Inhibition rate (%) of PCA reaction
Method: 0.1 ml of anti-dinitrophenylated ascaris extract (DNP-As) rat IgE serum was injected intracutaneously to the back of male Wistar rats (6 weeks of age). After 48 hours, a solution of 1% Evans blue in physiological saline containing 1 mg of an antigen (DNP-As) was administered from caudal vein. After 30 minutes, the animals were exsanguinated and dyes in blue spots were extracted with 1N KOH, and then the amounts of the dyes were measured by absorbance at 620 nm. After the passively sensitized rats described above were fasted for 16 to 18 hours, 1 mg/kg of each test compound was administered orally to the rats, and then the rats were challenged with antigen after one hour. The amounts of dyes in the test animals were compared with those of the control to obtain the inhibition rate (%) of PCA reaction.

[4] = known adverse reactions, background art; cited from earlier work

SMILES | Kb [1] | Kb [2] | inhibition at 1 mg/kg [3] | adverse reactions [4]
CN(CCC=C1c2ccccc2COc2ccccc21)CCCC(=O)O [Example 21, 4-[N-[3-(Dibenz[b,e]oxepin-11(6H)-ylidene)propyl]-N-methylamino]butyric Acid] | 7.24e-06 M | 3.47e-09 M |  | 
CN(CCC=C1c2ccccc2COc2ccccc21)CCCCC(=O)O [Example 22, 5-[N-[3-(Dibenz[b,e]oxepin-11(6H)-ylidene)propyl]-N-methylamino]valeric Acid] | 1e-05 M | 4.37e-09 M | 62% | 
CN(CCC=C1c2ccccc2COc2ccccc21)CCCCCC(=O)O [Example 23, 6-[N-[3-(Dibenz[b,e]oxepin-11(6H)-ylidene)propyl]-N-methylamino]hexanoic Acid] | 3.16e-06 M | 7.76e-09 M |  | 
CN(C)CCC=C1c2ccccc2C=Cc2ccccc21 [cyclobenzaprine, Cyclobenzaprine, reference compound] | 7.59e-09 M |  | 14% | sleepiness, dizziness, fatigue, thirst, nausea, constipation, and dyspepsia
CN(C)CCC=C1c2ccccc2COc2ccccc21 [doxepin, Doxepin, reference compound] | 5.89e-08 M |  | 21% | sleepiness, thirst, and constipations

Now from value to compound, other results behind:

Kb [1] | Kb [2] | SMILES | inhibition at 1 mg/kg [3] | adverse reactions [4]
1.51e-05 M | 6.92e-09 M | CN(CCC=C1c2ccccc2C=Cc2ccccc21)CCC(=O)O [Example 14, 3-[N-[3-(5H-Dibenzo[a,d]cyclohepten-5-ylidene)propyl]-N-methylamino]propionic Acid] | 72% | 
2.57e-06 M | 4.27e-09 M | CN(CCC=C1c2ccccc2C=Cc2ccccc21)CCCC(=O)O [Example 15, 4-[N-[3-(5H-Dibenzo[a,d]cyclohepten-5-ylidene)propyl]-N-methylamino]butyricAcid] |  | 
1.26e-05 M | 3.16e-08 M | CN(CCC=C1c2ccccc2C=Cc2ccccc21)CC(=O)O [Example 16, [N-[3-(5H-Dibenzo[a,d]cyclohepten-5-ylidene)propyl]-N-methylamino]acetic Acid] |  | 
9.12e-07 M | 6.17e-09 M | CN(CCC=C1c2ccccc2C=Cc2ccccc21)CCCCC(=O)O [Example 17, 5-[N-[3-(5H-Dibenzo[a,d]cyclohepten-5-ylidene)propyl]-N-methylamino]valericAcid] | 72% | 
5.5e-07 M | 1.2e-08 M | CN(CCC=C1c2ccccc2C=Cc2ccccc21)CCCCCC(=O)O [Example 18, 6-[N-[3-(5H-Dibenzo[a,d]cyclohepten-5-ylidene)propyl]-N-methylamino]hexanoic Acid] | 50% | 
4.9e-05 M | 1.55e-08 M | CN(CCC=C1c2ccccc2COc2ccccc21)CC(=O)O [Example 19, [N-[3-(Dibenz[b,e]oxepin-11(6H)-ylidene)propyl]-N-methylamino]acetic Acid] |  | 
7.08e-06 M | 3.09e-09 M | CN(CCC=C1c2ccccc2COc2ccccc21)CCC(=O)O [Example 20, 3-[N-[3-(Dibenz[b,e]oxepin-11(6H)-ylidene)propyl]-N-methylamino]propionic Acid] | 69% | 

— patent US5432192A, “Tricyclic compounds and method for treating allergic diseases” (Hokuriku Seiyaku Co., Ltd., priority 1991, dated 1995)
